Measurements taken from patent US9642922B2, “Caspase-triggered nano-aggregation probes and methods of use” (The Board of Trustees of the Leland Stanford Junior …, priority 2013, dated 2017).
Numbered stars: 1 amine (or outer) side, 2 acyl side, 3 side chain; on linkers, the order of the positions; unused ones are H or OH. Square brackets hold non-standard residues; d marks the D form. Peptide text beside a SMILES is read from it. * marks the point of attachment. DOTA = O=C(O)CN1CCN(CC(=O)O)CCN(CC(=O)*)CCN(CC(=O)O)CC1; X1 = O=C(C1CSC(c2nc3ccc(N[*:1])cc3s2)=N1)[*:2]; X2 = N#Cc1ccc2cc(OCCCN*)ccc2n1; SEt = CCS*

Assays:
[1] = target: T1, recombinant human caspase-7 (Homo sapiens, UniProt P55210); experiment: HPLC enzyme specificity assay of C-SNAF, caspase-7; type: biochemical; conditions: 25 μM probe, 0.735 μg/ml enzyme
T1 construct: purchased Calbiochem; host or cells: E. coli
Method: The specificity of C-SNAF towards other representative cysteine proteases such as caspase-7, caspase-9, cathepsin B, and legumain was examined.
Caspase (human, recombinant from E. coli) assays were performed for caspase-3 (4.9×10^−3 U; 7.35×10^−4 mg, Sigma), −7 (18.3 U; 7.35×10^−4 mg, Calbiochem), and −9 (0.3 U; 7.35×10^−4 mg, Calbiochem). All caspase assays were conducted in caspase buffer with 50 mM HEPES, 100 mM NaCl, 1 mM EDTA, 10 mM TCEP, 10% glycerol, and 0.1% CHAPS at pH 7.4. Cathepsin B (human liver; 0.27 U; 7.35×10^−4 mg, Calbiochem) and Legumain (human, recombinant from mouse myeloma cell line; >250 pmol/min/μg; 7.35×10^−4 mg, R&D Systems) were conducted in reaction buffer with 50 mM sodium acetate, 50 mM NaCl, 0.5 mM EDTA and 10 mM TCEP at pH 5.5. C-SNAF was diluted in the respective enzyme reaction buffer (25 μM, 1 mL) and remained at room temperature for 10 min, to which was then added the respective enzymes. Reactions were performed at 37° C., and monitored by HPLC hourly. The percentage conversion of the reaction was calculated based on the percentage of peak area of C-SNAF-cycl in the HPLC trace at 675 nm UV detection, which indicated the efficacy of enzyme cleavage of C-SNAF.

[2] = tested on: STS-induced apoptotic HeLa cells; experiment: Flow cytometry of STS-induced apoptotic HeLa cells labeled with probes; type: cell-based, human
Method: Approximately 10^5 HeLa cells in 1 mL DMEM medium were seeded onto 12-well plates. […] For the inhibitor blocking experiment, the STS-treated cells were first incubated with the caspase inhibitor Z-VAD-fmk (50 μM, R&D Systems) for 30 min, and then 2 μM C-SNAF was added. All cells incubations were 24 h, followed by staining with FLICA (FAM) after trypsinization. After washing with PBS (1×) three times, the cell pellets were resuspended in 300 μL PBS and applied for flow cytometry analysis using the FITC and Cy5.5 channels. The cell number for each flow cytometry analysis was approximately 5000 to 10000, and the data was processed using FlowJo software.

[3] = tested on: caspase-3/7; experiment: HPLC analysis of C-SNAF reaction in apoptotic cell lysates; type: biochemical, human; conditions: 5 μM, lysate of STS- and DOX-induced apoptotic HeLa or MDA-MB-231 cells
Method: To confirm the formation of the caspase-3/7-triggered intramolecular cyclization product C-SNAF-cycl in apoptotic cells, C-SNAF (5 μM) was incubated with both cell lysates and whole cells, and the products were analyzed by HPLC. […] However, more than 90% of C-SNAF was converted to C-SNAF-cycl in the lysate of STS- and DOX-induced apoptotic HeLa (FIG. 12A) or MDA-MB-231 cells, indicating the efficient intramolecular condensation initiated by caspase-3/7 in a complex cellular environment.
The culture medium was carefully removed and the cells were washed with cold 1×PBS. The cells were trypsinized to form cell pellets, and RIPA (RadioImmuno Precipitation Assay, sigma) buffer was added to cells using 100 μL of buffer per 4×10^6 cells. Then the cells were kept on ice for 0.5 h. The cell lysate was gathered, centrifuged at 14,000×g for 15 min at 4° C. The supernatant of the cell lysate was collected, and the caspase-3/7 activity in the lysate was determined by CASPASE-GLO® 3/7 assay. The cell lysate was diluted with caspase reaction buffer (2×, 1:1 diluted), and incubated with C-SNAF (5 μM) at 37° C. overnight and then injected into an HPLC system (Dionex) for analysis.

[4] = target: T2, cathepsin B (Homo sapiens, UniProt P07858); experiment: T1 measurement of probe 15 with cathepsin B; type: biochemical; conditions: probe 208 μM, protease 50 nM, 1 T
T2 construct: Cathepsin B (human liver; 0.27 U; 7.35×10^−4 mg, Calbiochem); purchased Calbiochem; host or cells: human liver (tissue-derived)
Method: (§1) The enzyme specificity of probe 15 was studied by measuring the T1 value resulting from probe incubation (208 μM) with any of five relevant subcellular proteases (caspase-3, -7, -9, cathepsin B and legumain) in enzyme buffer. […] The reduced T1 value in solution was inhibited by the caspase inhibitor Z-VAD-fmk (50 μM).
(§2) Cathepsin B (human liver; 0.27 U; 7.35×10^−4 mg, Calbiochem) and Legumain (human, recombinant from mouse myeloma cell line; >250 pmol/min/μg; 7.35×10^−4 mg, R&D Systems) were conducted in reaction buffer with 50 mM sodium acetate, 50 mM NaCl, 0.5 mM EDTA and 10 mM TCEP at pH 5.5. The C-SNAF was diluted in the respective enzyme reaction buffer (25 μM, 1 mL) and remained at room temperature for 10 min, to which was added respective enzymes.

[5] = target: T3, legumain (Homo sapiens, UniProt Q99538); experiment: T1 measurement of probe 15 with legumain; type: biochemical; conditions: probe 208 μM, protease 50 nM, 1 T
T3 construct: purchased R&D Systems; host or cells: mouse myeloma cell line
Method: as §1, §2

[6] = tested on: viable HeLa cells; experiment: Cell viability study (trypan blue); type: cell-based, human; conditions: 250 μM for 24 h
Method: About 2×10^5 HeLa cells in 1 mL DMEM medium were seeded onto 12-well plates. […] After 24 h incubation, the medium was removed, and the cells were trypsinized. The cell number was counted using trypan blue assay. The viability of cell with blank medium was set as 100%, and cells incubating with 1 or Dotarem were normalized to that in blank medium.

[7] = tested on: HeLa cell pellets; experiment: MRI T1 of HeLa cell pellets at 1 T; type: cell-based, human; conditions: 250 μM, 24 h
Description: Thus, higher caspase-3 activity in apoptotic cells can trap probe 15 inside cells, resulting in higher MRI contrast for cell apoptosis imaging.

[8] = target: T4, caspase-3 (Homo sapiens, UniProt P42574); experiment: T1 measurement of probe 15 with caspase-3; type: biochemical; set-up: purchased Sigma; host or cells: E. coli; conditions: probe 200 μM
T4 sequence (P42574 29-175 limits assumed): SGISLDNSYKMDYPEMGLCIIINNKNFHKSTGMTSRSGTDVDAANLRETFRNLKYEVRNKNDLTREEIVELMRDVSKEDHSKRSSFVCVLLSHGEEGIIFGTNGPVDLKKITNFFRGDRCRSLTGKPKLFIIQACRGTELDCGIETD
T4 sequence (P42574 176-277 limits assumed): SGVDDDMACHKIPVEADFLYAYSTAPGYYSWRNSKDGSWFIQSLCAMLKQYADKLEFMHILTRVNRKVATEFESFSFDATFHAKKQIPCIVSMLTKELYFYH
Method: as §1
Caspase (human, recombinant from E. coli) assays were performed for caspase-3 (4.9×10^−3 U; 7.35×10^−4 mg, Sigma), −7 (18.3 U; 7.35×10^−4 mg, Calbiochem), and −9 (0.3 U; 7.35×10^−4 mg, Calbiochem). All caspase assays were conducted in caspase buffer with 50 mM HEPES, 100 mM NaCl, 1 mM EDTA, 10 mM TCEP, 10% glycerol, and 0.1% CHAPS at pH 7.4.

T1 sequence (P55210 24-198 limits assumed): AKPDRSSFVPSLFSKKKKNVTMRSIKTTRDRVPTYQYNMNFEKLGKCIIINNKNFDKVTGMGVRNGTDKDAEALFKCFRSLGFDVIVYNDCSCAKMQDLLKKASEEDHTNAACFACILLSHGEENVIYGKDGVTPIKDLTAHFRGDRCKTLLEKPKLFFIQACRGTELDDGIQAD
T1 sequence (P55210 207-303 limits assumed): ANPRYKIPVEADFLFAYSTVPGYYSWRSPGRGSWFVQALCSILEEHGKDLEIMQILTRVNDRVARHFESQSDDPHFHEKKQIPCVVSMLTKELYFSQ
T3 sequence (Q99538 18-323): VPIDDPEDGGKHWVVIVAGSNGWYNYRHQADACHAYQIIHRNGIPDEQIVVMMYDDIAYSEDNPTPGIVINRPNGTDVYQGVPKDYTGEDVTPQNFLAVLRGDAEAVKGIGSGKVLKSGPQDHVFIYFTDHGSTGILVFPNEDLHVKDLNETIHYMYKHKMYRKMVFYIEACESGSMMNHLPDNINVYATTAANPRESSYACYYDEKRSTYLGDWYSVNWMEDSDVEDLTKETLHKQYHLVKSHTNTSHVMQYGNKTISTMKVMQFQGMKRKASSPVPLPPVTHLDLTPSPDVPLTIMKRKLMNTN

Row | T1 value after incubation with cathepsin B [4] | T1 value after incubation with legumain [5] | lowest caspase-3 concentration detected by T1 value measurements [8] [nM] | SMILES | selectivity of activation by caspase-7 [1] | labeling of FLICA-positive apoptotic cells ([2]; 2 μM probe, STS-induced apoptotic HeLa) | increase in Cy5.5 fluorescence of apoptotic relative to viable cells ([2]; 2 μM probe, STS-treated HeLa, flow cytometry) [fold] | effect of caspase inhibitor Z-VAD-fmk on the increased fluorescence ([2]; Z-VAD-fmk 50 μM) | C-SNAF converted to C-SNAF-cycl in lysate [3] | cytotoxicity, effect on cell viability [6] | reduction of T1 value in STS-treated versus non-treated cell pellets [7]
1 |  |  |  | CCSSC[C@@H](NC(=O)[C@H](CC(=O)O)NC(=O)[C@@H](NC(=O)[C@H](CCC(=O)O)NC(=O)[C@H](CC(=O)O)NC(C)=O)C(C)C)C(=O)N[C@@H](CCCCNC(=O)CCCCCN1C(=CC=CC=CC2=[N+](CC)c3ccc4c(S(=O)(=O)[O-])cc(S(=O)(=O)O)cc4c3C2(C)C)C(C)(C)c2c1ccc1c(S(=O)(=O)O)cc(S(=O)(=O)O)cc21)C(=O)Nc1ccc2nc(C3=N[C@@H](C(=O)NCCCOc4ccc5nc(C#N)ccc5c4)CS3)sc2c1 [C-SNAF] | high selectivity of the probe toward effector caspases-3 and -7 | efficiently labeled | ~13 | inhibited by Z-VAD-fmk | more than 90% |  | 
2 | No reduced T1 value | No reduced T1 value | 5 | CCSSCC(NC(=O)C(CC(=O)O)NC(=O)C(NC(=O)C(CCC(=O)O)NC(=O)C(CC(=O)O)NC(C)=O)C(C)C)C(=O)NC(CCCCNC(=O)CN1CCN(CC(=O)[O-])CCN(CC(=O)[O-])CCN(CC(=O)[O-])CC1)C(=O)Nc1ccc2nc(C3=NC(C(=O)NCCCOc4ccc5nc(C#N)ccc5c4)CS3)sc2c1.[Gd+3] (stereo not shown) [probe 15] (Ac-DEVDC(SEt)K(DOTA)[X1]-X2; configuration not given here) |  |  |  |  |  | no adverse effects on cell viability | about 3 fold
